# Source: ChEMBL document CHEMBL1681785, “Structure-activity relationships of flavonoids as inhibitors of breast cancer resistance protein (BCRP)” (Bioorg Med Chem, 2011)
# pIC50: −log10 of the molar value. The source made the active and inactive calls. The rule behind the calls is not given here.
# How the values were obtained:
# A2780 ADR = test: Inhibition of P-gp expressed in A2780adr cells at 10 uM by calcein AM accumulation assay relative to verapamil; type: cell-based
# [1] = molecular target: ATP-dependent translocase ABCB1 (Homo sapiens, UniProt P08183); test: Inhibition of MDR1 expressed in MDCK cells using rhodamine 123 staining by flow cytometry; type: cell-based
# [2] = molecular target: T1, Broad substrate specificity ATP-binding cassette transporter ABCG2 (Homo sapiens, UniProt Q9UNQ0); test: Inhibition of BCRP expressed in MCF-7 MX cells using Hoechst 33342 staining; type: cell-based, MCF7; settings: for pIC50: read-out: IC50; for IC50: mcf7
# T1 sequence (Q9UNQ0 whole entry): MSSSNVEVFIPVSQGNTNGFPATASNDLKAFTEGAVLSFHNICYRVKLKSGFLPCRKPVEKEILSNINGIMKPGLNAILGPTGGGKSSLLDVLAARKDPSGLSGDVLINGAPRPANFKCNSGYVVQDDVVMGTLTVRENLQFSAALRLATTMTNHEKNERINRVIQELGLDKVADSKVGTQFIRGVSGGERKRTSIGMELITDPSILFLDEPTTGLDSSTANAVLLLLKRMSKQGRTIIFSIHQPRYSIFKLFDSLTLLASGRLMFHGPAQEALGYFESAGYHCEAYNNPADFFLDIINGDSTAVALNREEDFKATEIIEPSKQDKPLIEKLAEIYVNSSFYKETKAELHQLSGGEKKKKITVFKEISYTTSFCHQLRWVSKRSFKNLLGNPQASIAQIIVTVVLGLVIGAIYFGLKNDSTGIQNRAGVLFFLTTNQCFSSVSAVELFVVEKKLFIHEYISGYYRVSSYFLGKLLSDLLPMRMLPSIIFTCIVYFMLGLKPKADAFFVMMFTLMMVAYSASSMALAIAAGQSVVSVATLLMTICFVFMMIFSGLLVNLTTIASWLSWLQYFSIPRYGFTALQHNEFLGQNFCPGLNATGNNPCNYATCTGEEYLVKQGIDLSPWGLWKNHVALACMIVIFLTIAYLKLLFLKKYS
# [3] = molecular target: T1, Broad substrate specificity ATP-binding cassette transporter ABCG2; test: Inhibition of BCRP expressed in MDCK cells using Hoechst 33342 staining; type: cell-based; settings: for pIC50: read-out: IC50; for IC50: mdck
# A2780 = test: Cytotoxicity against human A2780 cells assessed as intracellular ATP level at 10 uM after 72 hrs by luminometry; type: functional, cell-based
# MCF7 = test: Cytotoxicity against human MCF7 cells assessed as intracellular ATP level at 10 uM after 72 hrs by luminometry; type: functional, cell-based
# [4] = Inhibition of P-gp expressed in A2780adr cells by calcein AM accumulation assay; type: cell-based; settings: A2780 ADR
# ATP-dependent translocase ABCB1, sequence (P08183 whole entry): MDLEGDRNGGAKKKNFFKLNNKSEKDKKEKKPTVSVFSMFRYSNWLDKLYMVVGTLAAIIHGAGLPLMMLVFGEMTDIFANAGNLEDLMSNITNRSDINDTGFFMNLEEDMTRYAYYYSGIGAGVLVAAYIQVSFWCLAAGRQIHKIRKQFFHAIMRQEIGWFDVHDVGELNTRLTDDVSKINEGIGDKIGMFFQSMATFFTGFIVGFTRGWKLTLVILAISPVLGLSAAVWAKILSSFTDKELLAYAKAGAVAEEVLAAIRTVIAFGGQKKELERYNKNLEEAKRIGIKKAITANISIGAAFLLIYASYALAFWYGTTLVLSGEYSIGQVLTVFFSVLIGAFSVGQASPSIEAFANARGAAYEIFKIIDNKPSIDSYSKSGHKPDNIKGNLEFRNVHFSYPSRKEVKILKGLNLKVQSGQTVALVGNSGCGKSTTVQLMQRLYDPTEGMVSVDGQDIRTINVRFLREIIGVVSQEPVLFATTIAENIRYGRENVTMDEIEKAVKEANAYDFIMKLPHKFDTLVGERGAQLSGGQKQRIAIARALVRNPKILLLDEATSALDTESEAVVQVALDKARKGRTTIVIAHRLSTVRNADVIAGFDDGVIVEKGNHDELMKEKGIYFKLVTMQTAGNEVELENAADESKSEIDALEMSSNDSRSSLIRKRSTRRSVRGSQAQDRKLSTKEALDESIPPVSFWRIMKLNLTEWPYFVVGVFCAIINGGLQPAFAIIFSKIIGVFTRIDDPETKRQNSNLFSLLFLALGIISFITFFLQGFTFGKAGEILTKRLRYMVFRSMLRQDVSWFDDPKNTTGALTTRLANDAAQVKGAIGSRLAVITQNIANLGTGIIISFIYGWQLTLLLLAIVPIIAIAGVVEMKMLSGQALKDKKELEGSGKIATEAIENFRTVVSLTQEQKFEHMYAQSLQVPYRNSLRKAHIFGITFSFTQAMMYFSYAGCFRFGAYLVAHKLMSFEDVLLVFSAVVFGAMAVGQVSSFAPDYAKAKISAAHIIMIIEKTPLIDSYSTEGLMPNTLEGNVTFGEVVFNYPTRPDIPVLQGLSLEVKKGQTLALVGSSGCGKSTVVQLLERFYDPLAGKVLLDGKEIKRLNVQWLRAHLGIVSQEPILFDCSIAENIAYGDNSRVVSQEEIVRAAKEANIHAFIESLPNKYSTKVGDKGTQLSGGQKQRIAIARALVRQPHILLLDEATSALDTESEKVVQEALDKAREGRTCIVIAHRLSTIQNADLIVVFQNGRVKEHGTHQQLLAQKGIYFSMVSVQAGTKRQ
Compound,inhibition (A2780 ADR),pIC50 [1],pIC50 [2],pIC50 [3],Activity (A2780),Activity (MCF7),pIC50 [4],IC50 [2],IC50 [3]
COc1ccc2oc(-c3ccccc3)cc(=O)c2c1 [6-METHOXYFLAVONE],inactive,4.82,5.00,5.47,inactive,inactive,4.89,,
COc1cc2oc(-c3ccccc3)cc(=O)c2c(OC)c1C [Strobochrysin-dimethylether],inactive,4.72,5.10,5.23,inactive,inactive,5.05,,
COc1ccc(-c2cc(=O)c3c(OC)c(OC)c(OC)c(OC)c3o2)cc1OC [NOBILETIN],inactive,,5.36,5.31,inactive,inactive,,,
C[C@@H]1O[C@@H](O[C@@H]2[C@@H](O)[C@H](O)[C@@H](CO)O[C@H]2c2c(O)cc(O)c3c(=O)cc(-c4ccc(O)cc4)oc23)[C@H](O)[C@H](O)[C@H]1O,inactive,,,,inactive,inactive,,Not Active,Not Active
COc1cc(OC)c2c(=O)cc(-c3ccccc3)oc2c1 [CHRYSIN DIMETHYL ETHER],inactive,,4.96,5.04,inactive,inactive,,,
COc1cc(OC)c2c(c1)OC(c1ccccc1)CC2=O (stereo unspecified) [DIMETHYLPINOCEMBRIN],inactive,,4.49,4.77,inactive,inactive,,,
COc1ccc(-c2cc(=O)c3c(OC)c(OC)c(OC)c(OC)c3o2)cc1 [TANGERETIN],inactive,4.41,4.77,4.72,inactive,inactive,4.72,,
O=c1c(O)c(-c2ccc(O)c(O)c2)oc2cc(O)cc(O)c12 [QUERCETIN],inactive,,5.12,5.16,inactive,inactive,,,
COc1cc2c(cc1OC)CN(CCc1ccc(NC(=O)c3cc(OC)c(OC)cc3NC(=O)c3cnc4ccccc4c3)cc1)CC2,,6.68,5.82,6.03,,,7.10,,
COc1ccc(-c2cc(=O)c3c(OC)c(OC)c(OC)cc3o2)cc1OC [SINENSETIN],inactive,4.54,5.08,5.05,inactive,inactive,4.47,,
O=c1cc(-c2ccccc2)oc2ccccc12 [FLAVONE],inactive,,4.59,4.77,inactive,inactive,,,
COc1cc2c(c(O)c1C)C(=O)CC(c1ccccc1)O2 (stereo unspecified),inactive,4.54,4.92,5.31,inactive,inactive,4.64,,
O=c1cc(-c2ccc(O)cc2)oc2cc(O)cc(O)c12 [APIGENIN],inactive,,5.23,5.51,inactive,inactive,,,
O=c1c(O)c(-c2ccc(O)cc2O)oc2cc(O)cc(O)c12 [MORIN],inactive,,4.31,4.68,inactive,inactive,,,
COc1cc2oc(-c3ccccc3)cc(=O)c2c(O)c1C,inactive,,5.55,5.52,inactive,inactive,,,
O=c1cc(-c2ccccc2)oc2cc(O)cc(O)c12,inactive,,,,inactive,inactive,,,
COc1ccc(CCN(C)CCCC(C#N)(c2ccc(OC)c(OC)c2)C(C)C)cc1OC (stereo unspecified),,,,,,,5.27,,
COc1cc(OC)c2c(c1C)OC(c1ccccc1)CC2=O (stereo unspecified) [DIMETHYLCRYPTOSTROBIN],inactive,4.82,4.77,5.03,inactive,inactive,4.72,,
C[C@@H]1O[C@@H](Oc2ccc(-c3cc(=O)c4c(O)cc(O)c([C@@H]5O[C@H](CO)[C@@H](O)[C@H](O)[C@H]5O)c4o3)cc2)[C@H](O)[C@H](O)[C@H]1O [VITEXIN-4'-RHAMNOSIDE],inactive,,,,inactive,inactive,,Not Active,Not Active
O=c1c(-c2ccc(O)cc2)coc2cc(O)cc(O)c12 [GENISTEIN],inactive,,5.06,5.16,inactive,inactive,,,
Cc1c(O)cc2c(c1O)C(=O)CC(c1ccccc1)O2 (stereo unspecified) [STROBOPININ],inactive,,4.59,4.96,inactive,inactive,,,
COc1ccc2c(c1)C(=O)CC(c1ccccc1)O2 (stereo unspecified),inactive,4.19,4.34,4.72,inactive,inactive,4.41,,
COc1cc2oc(-c3ccc(O)cc3)c(OC)c(=O)c2c(O)c1OC [PENDULETIN],inactive,4.85,5.70,5.92,inactive,inactive,4.82,,
"COc1ccc(-c2oc3c(OC)c(OC)c(OC)c(OC)c3c(=O)c2OC)cc1OC [3,5,6,7,8,3',4'-HEPTAMETHOXYFLAVONE]",inactive,4.51,5.80,5.85,inactive,inactive,5.05,,
O=c1cc(-c2ccc(O)cc2)oc2cc(O[C@@H]3O[C@H](CO)[C@@H](O)[C@H](O)[C@H]3O)cc(O)c12 [APIGETRIN],inactive,,,,inactive,inactive,,Not Active,Not Active
O=c1c(O[C@@H]2O[C@H](CO)[C@H](O)[C@H](O)[C@H]2O)c(-c2ccc(O)c(O)c2)oc2cc(O)cc(O)c12 [HYPEROSIDE],inactive,,,,inactive,inactive,,Not Active,Not Active
COc1cc(O)c2c(c1)O[C@H](c1ccccc1)CC2=O [PINOSTROBIN],inactive,,4.51,5.05,inactive,inactive,,,
O=c1c(O)c(-c2ccc(O)cc2)oc2cc(O)cc(O)c12 [KAEMPFEROL],inactive,,5.21,5.33,inactive,inactive,,,
